The text below walks through data of patent US20080292561A1, “Pyrazolo-Pyrimidine Derivatives as Anti-Inflammatory Agents” (Glaxo Group Limited, priority 2005, published 2008).

The test system of this test is NFkB activity. As to the kind of experiment: Glucocorticoid mediated transrepression of NFkB activity (A549 cells, ELAM promoter alkaline phosphatase reporter, TNFα). The following applies: Homo sapiens, A549, 16 h, Human A549 lung epithelial cells, 3 ng/ml human recombinant TNFα, read-out: pIC50, transrepression of NFkB activity (converted). It is filed as cell-based. An excerpt:
Human A549 lung epithelial cells were engineered to contain a secreted placental alkaline phosphatase gene under the control of the distal region of the NFkB dependent ELAM promoter as previously described in Ray, K. P., Farrow, S., Daly, M., Talabot, F. and Searle, N. “Induction of the E-selectin promoter by interleukin 1 and tumour necrosis factor alpha, and inhibition by glucocorticoids” Biochemical Journal (1997) 328: 707-15.
Compounds were solvated and diluted in DMSO, and transferred directly into assay plates such that the final concentration of DMSO was 0.7%. Following the addition of cells (40K per well), plates were incubated for 1 hr prior to the addition of 3 ng/ml human recombinant TNFα. Following continued incubation for 16 hr, alkaline phosphatase activity was determined by measuring the change in optical density at 405 nm with time following the addition of 0.7 volumes of assay buffer (1 mg/ml p-nitrophenylphosphate dissolved in 1M diethanolamine, 0.28M NaCl, 0.5 mM MgCl2). Dose response curves were constructed from which EC50 values were estimated.
For `CCOC(=O)c1cccc(-n2ncc3c(NCC(O)(CC(C)(C)c4cc(F)ccc4OC)C(F)(F)F)nc(C)nc32)c1` (stereo not shown) [Example 22, Ethyl 3-(4-{[4-[5-fluoro-2-(methyloxy)phenyl]-2-hydroxy-4-methyl-2-(trifluoromethyl)pentyl]amino}-6-methyl-1H-pyrazolo[3,4-d]pyrimidin-1-yl)benzoate], the IC50 was less than 100 nM.

As for `CCc1nc(NCC(O)(CC(C)(C)c2cccc3c2OCC3)C(F)(F)F)c2cnn(-c3ccsc3)c2n1` (stereo not shown) [Example 12, 4-(2,3-Dihydro-1-benzofuran-7-yl)-2-({[6-ethyl-1-(3-thienyl)-1H-pyrazolo[3,4-d]pyrimidin-4-yl]amino}methyl)-1,1,1-trifluoro-4-methyl-2-pentanol], the IC50 was less than 100 nM.

With `CCc1nc(NCC(O)(CC(C)(C)c2cc(F)ccc2OC)C(F)(F)F)c2cnn(-c3ccc(F)cc3)c2n1` (stereo not shown) [Example 24, 2-({[6-Ethyl-1-(4-fluorophenyl)-1H-pyrazolo[3,4-d]pyrimidin-4-yl]amino}methyl)-1,1,1-trifluoro-4-[5-fluoro-2-(methyloxy)phenyl]-4-methyl-2-pentanol], the IC50 is less than 100 nM.

Regarding `COc1ccc(F)cc1C(C)(C)CC(O)(CNc1nc(C)nc2c1cnn2-c1ccc(F)cc1)C(F)(F)F` (stereo not shown) [Example 15, 1,1,1-Trifluoro-4-[5-fluoro-2-(methyloxy)phenyl]-2-({[1-(4-fluorophenyl)-6-methyl-1H-pyrazolo[3,4-d]pyrimidin-4-yl]amino}methyl)-4-methyl-2-pentanol], the IC50 is less than 100 nM.

`CCc1nc(NCC(O)(CC(C)(C)c2cccc3c2OCC3)C(F)(F)F)c2cnn(-c3cccc(C(=O)OC)c3)c2n1` (stereo not shown) [Example 30, Methyl 3-(4-{[4-(2,3-dihydro-1-benzofuran-7-yl)-2-hydroxy-4-methyl-2-(trifluoromethyl)pentyl]amino}-6-ethyl-1H-pyrazolo[3,4-d]pyrimidin-1-yl)benzoate]: the IC50 was less than 100 nM.

As for `COc1ccc(F)cc1C(C)(C)CC(O)(CNc1nc(C)nc2c1cnn2-c1ccccc1F)C(F)(F)F` (stereo not shown) [Example 14, 1,1,1-Trifluoro-4-[5-fluoro-2-(methyloxy)phenyl]-2-({[1-(2-fluorophenyl)-6-methyl-1H-pyrazolo[3,4-d]pyrimidin-4-yl]amino}methyl)-4-methyl-2-pentanol], the IC50 is less than 100 nM.

As to `CCc1nc(NCC(O)(CC(C)(C)c2cccc3c2OCC3)C(F)(F)F)c2cnn(-c3ccc(F)cc3F)c2n1` (stereo not shown) [Example 8, 2-({[1-(2,4-Difluorophenyl)-6-ethyl-1H-pyrazolo[3,4-d]pyrimidin-4-yl]amino}methyl)-4-(2,3-dihydro-1-benzofuran-7-yl)-1,1,1-trifluoro-4-methyl-2-pentanol], the IC50 is less than 100 nM.

Consider `COc1ccc(F)cc1C(C)(C)CC(O)(CNc1nc(C)nc2c1cnn2-c1ccccc1)C(F)(F)F` (stereo not shown) [Example 13, 1,1,1-Trifluoro-4-[5-fluoro-2-(methyloxy)phenyl]-4-methyl-2-{[(6-methyl-1-phenyl-1H-pyrazolo[3,4-d]pyrimidin-4-yl)amino]methyl}-2-pentanol], for which the IC50 is less than 100 nM.

Regarding `COc1ccc(F)cc1C(C)(C)CC(O)(CNc1nc(C)nc2c1cnn2-c1cccc(C#N)c1)C(F)(F)F` (stereo not shown) [Example 27, 3-(4-{[4-[5-Fluoro-2-(methyloxy)phenyl]-2-hydroxy-4-methyl-2-(trifluoromethyl)pentyl]amino}-6-methyl-1H-pyrazolo[3,4-d]pyrimidin-1-yl)benzonitrile], the IC50 is less than 100 nM.

With `Cc1nc(NCC(O)(CC(C)(C)c2cccc3c2OCC3)C(F)(F)F)c2cnn(-c3ccccc3F)c2n1` (stereo not shown) [Example 2, 4-(2,3-Dihydro-1-benzofuran-7-yl)-1,1,1-trifluoro-2-({[1-(2-fluorophenyl)-6-methyl-1H-pyrazolo[3,4-d]pyrimidin-4-yl]amino}methyl)-4-methyl-2-pentanol], the IC50 is less than 100 nM.

Turning to `COc1ccc(F)cc1C(C)(C)CC(O)(CNc1nc(C)nc2c1cnn2-c1ccc(F)nc1)C(F)(F)F` (stereo not shown) [Example 20, 1,1,1-Trifluoro-4-[5-fluoro-2-(methyloxy)phenyl]-2-({[1-(6-fluoro-3-pyridinyl)-6-methyl-1H-pyrazolo[3,4-d]pyrimidin-4-yl]amino}methyl)-4-methyl-2-pentanol], the IC50 is less than 100 nM.

With `Cc1nc(NCC(O)(CC(C)(C)c2cccc3c2OCC3)C(F)(F)F)c2cnn(-c3ccccc3)c2n1` (stereo not shown) [Example 1, 4-(2,3-Dihydro-1-benzofuran-7-yl)-1,1,1-trifluoro-4-methyl-2-{[(6-methyl-1-phenyl-1H-pyrazolo[3,4-d]pyrimidin-4-yl)amino]methyl}-2-pentanol], the IC50 was less than 100 nM.

`CCc1nc(NCC(O)(CC(C)(C)c2cc(F)ccc2OC)C(F)(F)F)c2cnn(-c3ccccc3)c2n1` (stereo not shown) [Example 26, 2-{[(6-Ethyl-1-phenyl-1H-pyrazolo[3,4-d]pyrimidin-4-yl)amino]methyl}-1,1,1-trifluoro-4-[5-fluoro-2-(methyloxy)phenyl]-4-methyl-2-pentanol]: the IC50 was less than 100 nM.

In the case of `CCc1nc(NCC(O)(CC(C)(C)c2cccc3c2OCC3)C(F)(F)F)c2cnn(-c3ccc(F)cc3)c2n1` (stereo not shown) [Example 7, 4-(2,3-Dihydro-1-benzofuran-7-yl)-2-({[6-ethyl-1-(4-fluorophenyl)-1H-pyrazolo[3,4-d]pyrimidin-4-yl]amino}methyl)-1,1-trifluoro-4-methyl-2-pentanol], the IC50 is less than 100 nM.

Regarding `COc1ccc(F)cc1C(C)(C)CC(O)(CNc1nc(C)nc2c1cnn2-c1ccncc1)C(F)(F)F` (stereo not shown) [Example 18, 1,1,1-Trifluoro-4-[5-fluoro-2-(methyloxy)phenyl]-4-methyl-2-({[6-methyl-1-(4-pyridinyl)-1H-pyrazolo[3,4-d]pyrimidin-4-yl]amino}methyl)-2-pentanol], the IC50 is less than 100 nM.

Turning to `COc1ccc(F)cc1C(C)(C)CC(O)(CNc1nc(C)nc2c1cnn2-c1ccc(F)cc1F)C(F)(F)F` (stereo not shown) [Example 16, 2-({[1-(2,4-Difluorophenyl)-6-methyl-1H-pyrazolo[3,4-d]pyrimidin-4-yl]amino}methyl)-1,1,1-trifluoro-4-[5-fluoro-2-(methyloxy)phenyl]-4-methyl-2-pentanol], the IC50 was less than 100 nM.

As to `COc1ccc(F)cc1C(C)(C)CC(O)(CNc1nc(C)nc2c1cnn2-c1ccsc1)C(F)(F)F` (stereo not shown) [Example 19, 1,1,1-Trifluoro-4-[5-fluoro-2-(methyloxy)phenyl]-4-methyl-2-({[6-methyl-1-(3-thienyl)-1H-pyrazolo[3,4-d]pyrimidin-4-yl]amino}methyl)-2-pentanol], the IC50 was less than 100 nM.

Consider `CCc1nc(NCC(O)(CC(C)(C)c2cccc3c2OCC3)C(F)(F)F)c2cnn(-c3ccccc3F)c2n1` (stereo not shown) [Example 6, 4-(2,3-Dihydro-1-benzofuran-7-yl)-2-({[6-ethyl-1-(2-fluorophenyl)-1H-pyrazolo[3,4-d]pyrimidin-4-yl]amino}methyl)-1,1,1-trifluoro-4-methyl-2-pentanol], for which the IC50 was less than 100 nM.

Turning to `CCc1nc(NCC(O)(CC(C)(C)c2cccc3c2OCC3)C(F)(F)F)c2cnn(-c3ccc(F)nc3)c2n1` (stereo not shown) [Example 11, 4-(2,3-Dihydro-1-benzofuran-7-yl)-2-({[6-ethyl-1-(6-fluoro-3-pyridinyl)-1H-pyrazolo[3,4-d]pyrimidin-4-yl]amino}methyl)-1,1,1-trifluoro-4-methyl-2-pentanol], the IC50 is less than 100 nM.

Take `COc1ccc(F)cc1C(C)(C)CC(O)(CNc1nc(C)nc2c1cnn2-c1cccnc1)C(F)(F)F` (stereo not shown) [Example 17, 1,1,1-Trifluoro-4-[5-fluoro-2-(methyloxy)phenyl]-4-methyl-2-({[6-methyl-1-(3-pyridinyl)-1H-pyrazolo[3,4-d]pyrimidin-4-yl]amino}methyl)-2-pentanol]: the IC50 is less than 100 nM.

Consider `COC(=O)c1cccc(-n2ncc3c(NCC(O)(CC(C)(C)c4cc(F)ccc4OC)C(F)(F)F)nc(C)nc32)c1` (stereo not shown) [Example 23, Methyl 3-(4-{[4-[5-fluoro-2-(methyloxy)phenyl]-2-hydroxy-4-methyl-2-(trifluoromethyl)pentyl]amino}-6-methyl-1H-pyrazolo[3,4-d]pyrimidin-1-yl)benzoate], for which the IC50 is less than 100 nM.

On to `Cc1nc(NCC(O)(CC(C)(C)c2cccc3c2OCC3)C(F)(F)F)c2cnn(-c3ccc(F)cc3)c2n1` (stereo not shown) [Example 3, 4-(2,3-Dihydro-1-benzofuran-7-yl)-1,1,1-trifluoro-2-({[1-(4-fluorophenyl)-6-methyl-1H-pyrazolo[3,4-d]pyrimidin-4-yl]amino}methyl)-4-methyl-2-pentanol], for which the IC50 is less than 100 nM.

Take `CCc1nc(NCC(O)(CC(C)(C)c2cccc3c2OCC3)C(F)(F)F)c2cnn(-c3ccncc3)c2n1` (stereo not shown) [Example 10, 4-(2,3-Dihydro-1-benzofuran-7-yl)-2-({[6-ethyl-1-(4-pyridinyl)-1H-pyrazolo[3,4-d]pyrimidin-4-yl]amino}methyl)-1,1,1-trifluoro-4-methyl-2-pentanol]: the IC50 is less than 100 nM.

Regarding `CCc1nc(NCC(O)(CC(C)(C)c2cccc3c2OCC3)C(F)(F)F)c2cnn(-c3cccc(C#N)c3)c2n1` (stereo not shown) [Example 29, 3-(4-{[4-(2,3-Dihydro-1-benzofuran-7-yl)-2-hydroxy-4-methyl-2-(trifluoromethyl)pentyl]amino}-6-ethyl-1H-pyrazolo[3,4-d]pyrimidin-1-yl)benzonitrile], the IC50 is less than 100 nM.

With `COc1ccc(F)cc1C(C)(C)CC(O)(CNc1nc(C)nc2c1cnn2-c1ccc(C#N)cc1)C(F)(F)F` (stereo not shown) [Example 21, 4-(4-{[4-[5-Fluoro-2-(methyloxy)phenyl]-2-hydroxy-4-methyl-2-(trifluoromethyl)pentyl]amino}-6-methyl-1H-pyrazolo[3,4-d]pyrimidin-1-yl)benzonitrile], the IC50 is less than 100 nM.
